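These data come from cells grown in 96-well plates and exposed to compound for 48 hours at five concentrations. Abbreviation: GI50, concentration required for 50% inhibition of growth.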 Calls of active or inactive are those of the source. Cut-off read from the data, not from the text of the source: active = GI50 up to about 1.1 µM and inactive = higher. Some results are limits rather than exact numbers.

Holding throughout (experiment): NCI-60 cell line screen, 48 h
Assay [1] has as its system BT-549.
Assay [2] concerns EKVX.
Assay [3] deals with HCT-116.
Assay [4] deals with HCT-15.
Assay [5] concerns HOP-92.
In assay [6] the test system is HT-29.
Assay [7] relates to IGROV-1.
The test system of assay [8] is KM12.
Assay [9] relates to M14.
Assay [10] concerns MDA-MB-435.
In assay [11] the test system is MOLT-4.
The test system of assay [12] is NCI/ADR-RES.
The test system of assay [13] is SK-MEL-28.
Assay [14] has as its system SNB-19.
In assay [15] the test system is SW-620.
Assay [16] deals with TK-10.
Assay [17] relates to U-251.
In assay [18] the test system is UACC-62.
For assay [19], the system named is UO-31.
In assay [20] the test system is LOX IMVI.

Consider `CC1(CO)OC(n2cnc3cncnc32)CC1O` (configuration not stated), for which the GI50 in [1] is > 100 µM (inactive); in assay [2] it was > 100 µM (inactive); in assay [3] it was > 100 µM (inactive); in assay [4], above 100 µM; in assay [5] it was > 100 µM (inactive); in assay [6], > 100 µM (inactive). Further, the GI50 in assay [7], in assay [8], in assay [9], in [10], in [11] and in assay [12] was > 100 µM (inactive) in each case. In addition, the GI50 in [13], in assay [14], in assay [15], in [16], in [17] and in assay [18] was > 100 µM (inactive) each time. For the same compound, the GI50 in assay [19] was > 100 µM (inactive).
With `CC1(C)CCSC(/C=C/c2ccccc2)=N1`, the GI50 in [1] is 7.14 µM (inactive); in [2] it was 31.6 µM (inactive); in [3] it was 13.6 µM (inactive); in [4], 9.77 µM; in [5], 13.4 µM (inactive); in assay [6] it was 18.4 µM (inactive). Further, the GI50 in [7] was 20.6 µM (inactive); in assay [8], 12 µM (inactive); in [20] it was 13.7 µM (inactive); in assay [9], 13.2 µM (inactive); in assay [10] it was 17.9 µM (inactive); in assay [11], 19 µM (inactive). The GI50 in assay [12] was 14.7 µM (inactive); in assay [13] it was 19.3 µM (inactive); in [14], 20.1 µM (inactive); in assay [15] it was 19.1 µM (inactive); in assay [16] it was 18.2 µM (inactive); in assay [17], 17.9 µM (inactive).
Consider `COc1ccc2nc3cc([N+](=O)[O-])ccc3c(Nc3ccc(S(=O)(=O)Nc4ncccn4)cc3)c2c1`, for which the GI50 in assay [1] is > 44.4 µM (inactive); in [2], > 100 µM (inactive); in [3], 40.6 µM (inactive); in [4], above 69.8 µM; in assay [5] it was > 44.7 µM (inactive); in assay [6], 26.5 µM (inactive). The GI50 was 15 µM (inactive) in [7]; 31.7 µM (inactive) in [8]; > 73.8 µM (inactive) in assay [20]; 48.8 µM (inactive) in [9]; > 67.3 µM (inactive) in assay [10]; > 20.2 µM (inactive) in [11]. The GI50 in assay [12] is > 100 µM (inactive); in assay [13], > 85.5 µM (inactive); in assay [15], > 76.7 µM (inactive); in assay [16], 66.8 µM (inactive); in [17], > 55 µM (inactive); in assay [18], > 65.9 µM (inactive). In addition, in assay [19], the GI50 is 19.4 µM (inactive).
`N=C(N)SCCN1CCCCC1`: the GI50 is 25.1 µM (inactive) in assay [1]; 60.3 µM (inactive) in assay [2]; 26.7 µM (inactive) in [3]; 25.6 µM in assay [4]; 27.9 µM (inactive) in assay [5]; 29.9 µM (inactive) in assay [6]. Also, the GI50 in assay [7] is 36.6 µM (inactive); in assay [8], 40.6 µM (inactive); in [20], 20.2 µM (inactive); in [9] it was 19.9 µM (inactive); in [10] it was 19.4 µM (inactive); in assay [11] it was 20.6 µM (inactive). Besides, the GI50 in [12] is 29.2 µM (inactive); in assay [13] it was 28.5 µM (inactive); in assay [15], 29.8 µM (inactive); in assay [16] it was 43.7 µM (inactive); in assay [17], 19.9 µM (inactive); in assay [18] it was 23.4 µM (inactive). The GI50 in assay [19] was 25.5 µM (inactive).
As for `O=c1c2cc([N+](=O)[O-])ccc2nc2n1CCCCC2`, the GI50 was 78 µM (inactive) in assay [1]; 66.4 µM (inactive) in assay [2]; > 100 µM (inactive) in [3]; above 100 µM in [4]; > 100 µM (inactive) in assay [5]; > 100 µM (inactive) in assay [6]. The GI50 in assay [7], in [8], in assay [20], in assay [9], in assay [10] and in assay [11] was > 100 µM (inactive) in each case. Also, the GI50 in assay [12], in assay [13], in [15], in [16], in [17] and in assay [18] was > 100 µM (inactive) each time. The GI50 in assay [19] is > 100 µM (inactive).
`COc1cc(/C=C2\C[C@H]3[C@@H]4CCc5cc(O)ccc5[C@H]4CC[C@]3(C)C2=O)cc(OC)c1OC`: the GI50 was 18.9 µM (inactive) in assay [1]; 10.1 µM (inactive) in [2]; 13.4 µM (inactive) in [3]; 25.8 µM in [4]; 12.5 µM (inactive) in assay [6]; 15.3 µM (inactive) in assay [7]. Besides, the GI50 in assay [8] was 14 µM (inactive); in [20] it was 15.5 µM (inactive); in [9], 16.8 µM (inactive); in assay [10], 16.9 µM (inactive); in assay [11], 11.1 µM (inactive); in assay [12] it was 16.8 µM (inactive). Further, the GI50 in assay [13] was 11.8 µM (inactive); in assay [14] it was 19.9 µM (inactive); in assay [15] it was 16.7 µM (inactive); in [16] it was 8.81 µM (inactive); in assay [17] it was 15.8 µM (inactive); in assay [18], 22.7 µM (inactive). Moreover, the GI50 in [19] is 11.6 µM (inactive).
Take `N#Cc1c2c(c(Nc3ccc(F)cc3)n3c1nc1ccccc13)CCCC2`: the GI50 is > 91.6 µM (inactive) in assay [1]; > 100 µM (inactive) in assay [2]; 20 µM (inactive) in [3]; above 100 µM in [4]; 26.9 µM (inactive) in assay [5]; > 100 µM (inactive) in assay [6]. The GI50 was > 59.3 µM (inactive) in [7]; 5.6 µM (inactive) in assay [8]; 1.7 µM (inactive) in assay [9]; > 24.9 µM (inactive) in [10]; 6.32 µM (inactive) in assay [11]; > 100 µM (inactive) in [12]. Also, the GI50 in [13] was > 100 µM (inactive); in assay [14], 26.7 µM (inactive); in assay [15], > 54 µM (inactive); in assay [16], 18.9 µM (inactive); in assay [17], 43.8 µM (inactive); in [18] it was > 100 µM (inactive). In addition, the GI50 in assay [19] was > 38.9 µM (inactive).
Consider `O=C1NC2NC3NC(=O)NC3NC2N1` (configuration not stated), for which the GI50 in assay [1], in assay [2], in assay [3], in assay [5], in assay [6] and in [7] was > 100 µM (inactive) in each case. Besides, the GI50 in assay [8], in assay [20], in [9], in assay [10], in [11] and in assay [12] was > 100 µM (inactive) throughout. Also, the GI50 in [13], in [14], in assay [15], in assay [17], in [18] and in assay [19] was > 100 µM (inactive) each time.
As for `CCc1cc(Cc2cc(CC)c(NC(=O)C(=O)CC(=O)c3sc(-c4cccnc4)nc3C)c(CC)c2)cc(CC)c1NC(=O)C(=O)CC(=O)c1sc(-c2cccnc2)nc1C`, the GI50 was > 100 µM (inactive) in [1]; > 100 µM (inactive) in assay [2]; > 100 µM (inactive) in [3]; above 100 µM in assay [4]; > 100 µM (inactive) in [5]; > 100 µM (inactive) in assay [6]. Besides, the GI50 in assay [7], in assay [8], in assay [20], in assay [9], in assay [10] and in assay [11] was > 100 µM (inactive) each time. Further, the GI50 in assay [12], in [13], in assay [14], in [15], in [17] and in assay [18] was > 100 µM (inactive) throughout. In addition, the GI50 in [19] was > 100 µM (inactive).
Turning to `CN1C2CCC1CC(CCNC(c1ccccc1)c1ccccc1)C2` (configuration not stated), the GI50 was 49.3 µM (inactive) in assay [1]; 24.9 µM (inactive) in assay [2]; 18.3 µM (inactive) in assay [3]; 33.7 µM in [4]; 18 µM (inactive) in assay [5]; 15.2 µM (inactive) in assay [6]. The GI50 in assay [7] is 62.7 µM (inactive); in assay [8], 44 µM (inactive); in assay [20], 20.2 µM (inactive); in assay [9], 11.6 µM (inactive); in assay [10], 6.81 µM (inactive); in [11], 25.4 µM (inactive). The GI50 in assay [12] was > 100 µM (inactive); in assay [13] it was 17.3 µM (inactive); in assay [14], > 100 µM (inactive); in assay [15] it was 79.6 µM (inactive); in assay [16] it was 22.2 µM (inactive); in assay [17], 30.6 µM (inactive). Further, in assay [19], the GI50 is 17.2 µM (inactive).
For the compound `Cc1ccc(-c2cc(=O)c(=O)[nH][nH]2)cc1`, the GI50 is > 100 µM (inactive) in assay [1]; > 100 µM (inactive) in assay [2]; > 100 µM (inactive) in [3]; above 100 µM in [4]; > 100 µM (inactive) in [5]; > 100 µM (inactive) in [6]. Also, the GI50 in assay [7] was 45.1 µM (inactive); in assay [8] it was > 100 µM (inactive); in assay [20], > 100 µM (inactive); in assay [9], > 100 µM (inactive); in assay [10], > 100 µM (inactive); in assay [11], > 100 µM (inactive). Also, the GI50 in [12], in [13], in assay [15], in [16], in [17] and in assay [18] was > 100 µM (inactive) in each case. In [19], the GI50 is > 100 µM (inactive).

The record behind these values is ChEMBL document CHEMBL1201862, “PubChem BioAssay data set” (2004).
